The results in this text go back to patent US10308647B2, “Fused imidazole derivatives as IDO/TDO inhibitors” (SciFluor Life Sciences, Inc., priority 2015, dated 2019).

As usually defined, the IC50 is the midpoint of a concentration-inhibition curve.

One test deals with recombinant IDO1 (Homo sapiens, UniProt P14902). In words: IDO1 enzymatic assay (UV absorption, N-formylkynurenine formation). The conditions noted are these: for IC50: 40 nM IDO1, 900 μM tryptophan, 180 min, room temperature, read-out: Enzyme IDO IC50; for Enzyme IDO IC50 ratio compared to Cmpd 2: IC50 of compound divided by IC50 of reference compound 2. The format is biochemical. The procedure: (§1) The assay was performed by UV absorption using either recombinant IDO1 or TDO2 and L-Tryptophan as substrate. The UV absorption signal at 321 nm was correlated with the amount of N-formylkynurenine reaction product of IDO1 and TDO2.
(§2) The compounds of the present application were diluted in 10% DMSO and 5 μl of the dilution was added to a 100 μl reaction so that the final concentration of DMSO is 0.5% in all reactions.
IDO1 Assay: All of the reactions were conducted at room temperature. The 100 μl reaction mixture in IDO Assay Buffer contains 40 nM IDO1, the indicated amount of the compound, 900 μM tryptophan, and the coupled reaction components. The reaction mixture was incubated for 180 min prior to reading of the UV absorption signal. For the negative control (blank), 5 μl of the assay buffer was added instead of the IDO1.
(§3) Absorption signals were measured using a Tecan Infinite M1000 plate reader.
(§4) Data analysis: Binding experiments were performed in duplicate at each concentration. The data were analyzed using the computer software, Graphpad Prism. In the absence of the compound, the absorption signal (At) in each data set was defined as 100% activity. In the absence of the IDO1, the absorption signal (Ab) in each data set was defined as 0% activity. The percent activity in the presence of each compound was calculated according to the following equation: % activity=[(A−Ab)/(At−Ab)]×100, where A=the absorption signal in the presence of the compound. The percent inhibition was calculated according to the following equation: % inhibition=100−% activity. The values of % activity versus a series of compound concentrations were then plotted using non-linear regression analysis of Sigmoidal dose-response curve generated with the equation Y=B+(T−B)/1+10^((LogIC50−X)×Hill Slope), where Y=percent activity, B=minimum percent activity, T=maximum percent activity, X=logarithm of compound and Hill Slope=slope factor or Hill coefficient. The IC50 value was determined by the concentration causing a half-maximal percent activity.

The target in a further test is recombinant TDO2 (Homo sapiens, UniProt P48775). As to the kind of experiment: TDO2 enzymatic assay (UV absorption, N-formylkynurenine formation). The format is biochemical. The conditions noted are these: for IC50: 50 nM TDO2, 200 μM tryptophan, 60 min, room temperature, read-out: Enzyme TDO IC50; for Enzyme TDO IC50 ratio compared to Ref. Cmpd 1: IC50 of compound divided by IC50 of Ref. Cmpd 1. The procedure: as §1, §2
TDO2 Assay: All of the reactions were conducted at room temperature. The 100 μl reaction mixture in TDO2 Assay Buffer contains 50 nM TDO2, the indicated amount of the compound, 200 μM tryptophan, and the coupled reaction components. The reaction mixture was incubated for 60 min prior to reading of the UV absorption signal. For the negative control (blank), 5 μl of the assay buffer was added instead of the TDO2.
as §3
as §4, with “The percent inhibition was calculated according to the following equation: % inhibition=100−% activity.” left out

Chain of recombinant IDO1 (P14902 whole entry, species assumed): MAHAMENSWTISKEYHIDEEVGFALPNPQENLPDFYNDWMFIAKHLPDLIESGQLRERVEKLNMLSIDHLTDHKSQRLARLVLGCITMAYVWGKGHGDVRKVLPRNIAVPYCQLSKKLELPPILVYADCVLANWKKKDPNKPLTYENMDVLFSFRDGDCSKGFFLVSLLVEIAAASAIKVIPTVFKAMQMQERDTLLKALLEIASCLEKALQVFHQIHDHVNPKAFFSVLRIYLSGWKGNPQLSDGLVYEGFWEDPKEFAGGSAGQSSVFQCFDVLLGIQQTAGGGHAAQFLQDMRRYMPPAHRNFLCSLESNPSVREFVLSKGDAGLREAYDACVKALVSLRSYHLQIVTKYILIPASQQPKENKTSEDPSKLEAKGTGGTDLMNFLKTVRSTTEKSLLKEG
Chain of recombinant TDO2 (P48775 whole entry, species assumed): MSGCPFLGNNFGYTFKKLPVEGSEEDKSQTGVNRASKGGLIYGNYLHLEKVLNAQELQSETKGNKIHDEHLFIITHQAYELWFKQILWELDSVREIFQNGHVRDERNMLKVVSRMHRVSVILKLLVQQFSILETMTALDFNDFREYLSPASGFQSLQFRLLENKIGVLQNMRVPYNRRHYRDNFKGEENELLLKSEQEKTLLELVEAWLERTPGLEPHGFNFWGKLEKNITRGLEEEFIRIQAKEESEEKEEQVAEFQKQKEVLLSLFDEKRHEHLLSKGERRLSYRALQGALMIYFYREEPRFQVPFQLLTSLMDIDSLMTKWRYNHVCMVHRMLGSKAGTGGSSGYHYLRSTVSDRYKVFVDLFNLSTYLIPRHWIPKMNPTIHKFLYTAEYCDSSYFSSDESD

For `OC1c2ccccc2C(CC(O)C2CCCCC2)n2cncc21` (centres unmarked) [Cmpd 298], the IC50 on recombinant IDO1 and on recombinant TDO2 was > 30 µM each time.
For `OC(CCc1c(F)cccc1-c1c[nH]cn1)C1CCCCC1` (centres unmarked) [Cmpd 302], on recombinant IDO1, the half-inhibitory concentration (IC50) came out at 19.9 µM and the “Enzyme IDO IC50 ratio compared to Cmpd 2” value is listed as 226.14. For the same compound, at recombinant TDO2, the IC50 amounted to 15.5 µM and the “Enzyme TDO IC50 ratio compared to Ref. Cmpd 1” value (“Enzyme TDO IC50 ratio” below) stood at 19.33.
For `CC1(CC(O)C2CCCCC2)c2ccccc2-c2cncn21` (centres unmarked) [Cmpd 296], in that order: 13.1 µM, 195.52, 2.3 µM and 2.30.
`OC(CC1CCc2ccccc2-c2cncn21)C1CCCCC1` (centres unmarked) [Cmpd 279]: at recombinant IDO1, the IC50 was 7.1 µM and the “Enzyme IDO IC50 ratio compared to Cmpd 2” value is 165.12. Also, at recombinant TDO2, the IC50 was 2.36 µM and the “Enzyme TDO IC50 ratio” value amounted to 6.21.
For `OC(/C=C/c1c(F)cccc1-c1c[nH]cn1)C1CCCCC1` (centres unmarked) [Cmpd 303], the concentration for half-maximal inhibition (IC50) at recombinant IDO1 is > 30 µM. On recombinant TDO2, the IC50 came to 9.2 µM and the “Enzyme TDO IC50 ratio” value amounted to 11.47.
With `O[C@@H](C[C@@H]1Cn2cncc2-c2ccccc21)C1CCCCC1` (racemic) [Cmpd 306], at recombinant IDO1, the IC50 was found to be 1.2 µM and the “Enzyme IDO IC50 ratio compared to Cmpd 2” value was determined as 29.27. For the same compound, on recombinant TDO2, the IC50 was 0.286 µM and the “Enzyme TDO IC50 ratio” value came to 1.35.
Taken in the same sequence, the figures for `O[C@@H](C[C@H]1Cn2cncc2-c2ccccc21)C1CCCCC1` (racemic) [Cmpd 305] were 0.328 µM, 8.00, 0.166 µM and 0.78.
For `OC1CCC(C(F)CC2Cc3ccccc3-c3cncn32)CC1` (centres unmarked) [Cmpd 310], in that order: 1.2 µM, 32.43, 1.9 µM and 5.67.
Taken in the same sequence, the figures for `FC(CC1Cn2cncc2-c2ccccc21)C1CCCCC1` (centres unmarked) [Cmpd 307] were 0.299 µM, 7.29, 0.052 µM and 0.25.
On to `FC(CC1Cc2ccccc2-c2cncn21)C1CCCCC1` (centres unmarked) [Cmpd 311], for which, on recombinant IDO1, the IC50 came out at 0.31 µM and the “Enzyme IDO IC50 ratio compared to Cmpd 2” value is 8.38. Also, at recombinant TDO2, the IC50 is 0.111 µM and the “Enzyme TDO IC50 ratio” value came to 0.33.
Consider `OC1CCC(C(O)CC2(C(F)(F)F)c3c(F)cccc3-c3cncn32)CC1` (centres unmarked) [Cmpd 293], for which the IC50 on recombinant IDO1 and at recombinant TDO2 was > 100 µM each time.
With `OC(C1CCCCC1)C1CC1c1c(F)cccc1-c1c[nH]cn1` (centres unmarked) [Cmpd 304], on recombinant IDO1, the IC50 amounted to 12.5 µM and the “Enzyme IDO IC50 ratio compared to Cmpd 2” value amounted to 142.05. On recombinant TDO2, the IC50 stood at 3.1 µM and the “Enzyme TDO IC50 ratio” value was 3.87.
For the compound `OC1CCC(C(O)CC2(C(F)(F)F)c3c(F)cccc3-c3cncn32)CC1` (centres unmarked) [Cmpd 292], the concentration for half-maximal inhibition (IC50) at recombinant IDO1 and at recombinant TDO2 was > 100 µM throughout.
For `OC(CC1C(O)c2ccccc2-c2cncn21)C1CCCCC1` (centres unmarked) [Cmpd 309], on recombinant IDO1, the IC50 is 5.5 µM and the “Enzyme IDO IC50 ratio compared to Cmpd 2” value is 105.77. For the same compound, at recombinant TDO2, the IC50 was 7.6 µM and the “Enzyme TDO IC50 ratio” value was determined as 33.33.
Regarding `FC(CC1Cc2ccccc2-c2cncn21)C1CCCCC1` (centres unmarked) [Cmpd 301], at recombinant IDO1, the IC50 was determined as 0.133 µM and the “Enzyme IDO IC50 ratio compared to Cmpd 2” value turned out to be 1.51. Further, on recombinant TDO2, the IC50 was determined as 0.096 µM and the “Enzyme TDO IC50 ratio” value is given as 0.12.
`OC(CC1(C(F)(F)F)c2ccccc2-c2cncn21)C1CCCCC1` (centres unmarked) [Cmpd 291]: the IC50 on recombinant IDO1 is > 100 µM. Further, at recombinant TDO2, the IC50 was 26 µM and the “Enzyme TDO IC50 ratio” value is 16.25.
On to `OC(CC1C(O)c2ccccc2-c2cncn21)C1CCCCC1` (centres unmarked) [Cmpd 308], for which, at recombinant IDO1, the IC50 was 23 µM and the “Enzyme IDO IC50 ratio compared to Cmpd 2” value worked out at 442.31. Besides, on recombinant TDO2, the IC50 was determined as 14.2 µM and the “Enzyme TDO IC50 ratio” value worked out at 62.28.
Taken in the same sequence, the figures for `OC(CC1c2ccccc2Cc2cncn21)C1CCCCC1` (centres unmarked) [Cmpd 297] were 14 µM, 129.63, 2.2 µM and 6.90.
In the case of `OC(CC1Cc2ccccc2-c2cncn21)C1CCCCC1` (centres unmarked) [Cmpd 278], on recombinant IDO1, the IC50 turned out to be 0.149 µM and the “Enzyme IDO IC50 ratio compared to Cmpd 2” value stood at 3.47. Also, at recombinant TDO2, the IC50 was 0.165 µM and the “Enzyme TDO IC50 ratio” value came to 0.43.
Turning to `FC(CC1Cc2ccccc2-c2cncn21)C1CCCCC1` (centres unmarked) [Cmpd 312], at recombinant IDO1, the IC50 amounted to 0.049 µM and the “Enzyme IDO IC50 ratio compared to Cmpd 2” value is reported as 1.32. On recombinant TDO2, the IC50 turned out to be 0.078 µM and the “Enzyme TDO IC50 ratio” value was found to be 0.23.
Regarding `OC(CC1(C(F)(F)F)c2ccccc2-c2cncn21)C1CCCCC1` (single isomer, unassigned) [Cmpd 290], the IC50 on recombinant IDO1 is > 100 µM. Moreover, the “Enzyme TDO IC50 ratio” value at recombinant TDO2 was determined as 18.75.
For the compound `CC1c2ccccc2-c2cncn2C1C(O)C1CCCCC1` (centres unmarked) [Cmpd 295], at recombinant IDO1, the IC50 is 14.5 µM and the “Enzyme IDO IC50 ratio compared to Cmpd 2” value is reported as 216.42. Moreover, on recombinant TDO2, the IC50 worked out at 8.4 µM and the “Enzyme TDO IC50 ratio” value turned out to be 8.40.
Consider `CC1c2ccccc2-c2cncn2C1C(O)C1CCCCC1` (centres unmarked) [Cmpd 294], for which the IC50 at recombinant IDO1 and at recombinant TDO2 was > 30 µM each time.
